The values below come from US20230047766A1, “MEDICAL DEVICE, THERAPEUTIC METHOD, AND DIAGNOSTIC METHODS FOR THE TREATMENT AND PREVENTION OF VASOSPASM” (Sylvian Inc., priority 2020, published 2023).

SMILES strings stand for the structures.

One series relates to ET-1. To be noted: intravenous; clinical trial databases; cited from earlier work.
The next series concerns dogs. Description: intrathecal (IT) administration to dogs: Evans blue distribution and maximum dose volume of saline for 30 minutes. The class given is in vivo. To be noted: anesthetized dogs, approx. 1 mL of 0.5% solution, catheter near the bregma. How it is done:
A second experiment was conducted to establish a procedure of IT administration to dogs to determine the maximum dose volume by IT administration of saline for 30 minutes. An approximately 1 mL of 0.5% Evans blue solution was administered to 4 anesthetized dogs via a catheter placed in the subarachnoid space near the bregma. After the administration, the animals were necropsied, and the CNS was macroscopically observed to verify the distribution of the Evans blue solution. In addition, 8 or 4 mL of saline, which is considered to be respectively approximately […] of a total volume of CSF, was administered to 6 unanesthetized dogs under a restrained condition. Saline was administered during the dosing and until 1 hour after dosing. The animals were necropsied on the next day of dosing and the CNS were macroscopically observed.

The test system of another series is rats. Nature of the series: intrathecal (IT) administration to rats: Evans blue distribution and maximum dose volume of saline for 30 minutes. To be noted: rat, in vivo. How it is done:
A first experiment was conducted to establish a procedure of intrathecal (IT) administration to rats to determine the maximum dose volume by IT administration of saline for 30 minutes. An approximately 30 μL of 1.0% Evans blue solution was administered to 6 anesthetized rats via a catheter placed in the subarachnoid space in the cisternal magna. After administration, the animals were necropsied, and the central nervous system (CNS) including the brain and cervical spinal cord were macroscopically observed to verify the distribution of Evans blue solution. In addition, 0.125, 0.25, 0.5, and 1.0 mL of saline, which is considered to be respectively approximately ½, equal, 2-fold, and 4-fold of a total volume of CSF in rats, was administered to 1 or 3 unanesthetized rats per dose volume. Saline was administered for 30 minutes using an infusion pump. Clinical signs were observed during the dosing and until 1 hour after dosing. The animals were necropsied on the next day of dosing and the CNS were macroscopically observed.

Series [1] deals with vasospasm associated with SAH. The following applies: animal studies; high concentrations (~7%) in cranial ventricles; cited from earlier work.
The nature of series [2]: solubility of trehalose in water (saturated trehalose solution). The class given is physicochemical. To be noted: 20° C. The procedure:
FIGS. 4A-4G are graphs showing simulations of trehalose concentrations in human CSF to determine clinical dose regimens. The simulations assume that a CSF volume of a human is approximately 140 mL and that the CSF exchange rate is approximately […]. […] In the simulations, the trehalose is administered by a bolus injection, and is equally distributed in the CSF immediately after the injection. For the simulations below, a saturated trehalose solution was prepared by dissolving 68.9 g of trehalose per 100 g of water at 20° C.
FIG. 4A is a graph 400 showing a simulation of trehalose concentration 410 in human CSF to determine a clinical dose regimen. In this example simulation, 9.8 g of trehalose was estimated to be required to achieve a 7 wt % trehalose concentration in the CSF immediately after injection.

Take `COc1ccccc1Oc1c(NS(=O)(=O)c2ccc(C)cn2)nc(-c2ccnc(-c3nnn[nH]3)c2)nc1OCCO` [Clozasentan]: the effect on vasospasm entry in the series on ET-1 is recorded as “reversal of vasospasms in large arteries”. For `Cc1cc(-c2ccc(/N=N/c3ccc4c(S(=O)(=O)O)cc(S(=O)(=O)O)c(N)c4c3O)c(C)c2)ccc1/N=N/c1ccc2c(S(=O)(=O)O)cc(S(=O)(=O)O)c(N)c2c1O` [Evans blue solution, Evans blue], the “distribution after IT administration (macroscopic observation)” value in the series with dogs is “distributed to the subarachnoid space of the whole cerebral cortex”; with rats, “distributed to the subarachnoid space of the cisterna magna, the bottom of the brain, and the cervical spinal cord in all animals”. Consider `OC[C@H]1O[C@H](O[C@H]2O[C@H](CO)[C@@H](O)[C@H](O)[C@H]2O)[C@H](O)[C@@H](O)[C@@H]1O` [trehalose], for which the “effect on inflammatory cascade and vasospasm associated with SAH” value in series [1] was “significant inhibition of the inflammatory cascade and vasospasm”. The “trehalose dissolved for a saturated solution” value in series [2] is reported as 68.9 g per 100 g of water.
